We go through 26 compounds from US8217042B2, “Pyridopyrazines and their use as modulators of kinases” (Zentaris GmbH, priority 2005, dated 2012).

The structures appear in SMILES notation. Counter-ions that a name gives are not always drawn.

The target in one series is T1, PI3Kalpha (Homo sapiens, UniProt P42336).
T1 construct: in some cases as full-length kinases, in some cases as truncated fragments; purchased Upstate 14-602
The series is described as follows: Cell-free kinase assay (ALPHA technology), PI3K-ALPHA. Type of series: biochemical. Particulars: 100 μM ATP, recombinant human kinase. As to the method:
(§1) The inhibitory effect of the inventive compounds was tested on various human serine/threonine kinases, tyrosine kinases and lipid kinases in enzymatic assays. Recombinant human kinases, for example Erk2, PI3Kalpha, -beta, -gamma, -delta, p38alpha, p38gamma, Jnk1, Jnk2 and others were used, in some cases as full-length kinases, in some cases as truncated fragments—but at least consisting of the functional kinase domains. The commercial kinase proteins (Proqinase, Upstate) were used as recombinant fusion proteins with GST (glutathione S-transferase) tag or His tag. Depending on the substrate type, the different kinase reactions were quantified by means of suitable ALPHA™ beads (PerkinElmer).
(§2) The substrate testing on the Erk assay is described in detail below. Selected test results of the Erk2, PI3Kalpha assays are cited below. […] The kinase reaction was then stopped by adding 10 μl of the ALPHA bead mix (10 μg/ml, #6760617/PerkinElmer), pre-incubated with anti-phospho MBP antibody (320 μM, #05-429/Upstate), in 25 mM Tris, 200 mM NaCl, 100 mM EDTA and 0.3% BSA, and left to stand overnight. • b) PI3K-ALPHAs (e.g. PI3Kalpha): The test substance, 1 ng of PI3Kalpha (#14-602, Upstate), 100 μM ATP and 20 μM PIP2 substrate (#P4508, Echelon) on a 384-well Optiplate (Perkin Elmer) for 1 h in 50 mM Hepes, 50 mM NaCl, 5 mM MgCl2, 0.05% Chaps, 5 mM DTT at pH 7.4. Subsequently, the kinase reaction was stopped by adding the ALPHA bead mix (10 μg/ml, #6760603/PerkinElmer), preincubated with 1 nM GST:Grp1 fusion protein (Upstate) and 15 nM biotinylated PIP3 (#C-39B6/Echelon) in 50 mM Hepes, 50 mM NaCl, 50 mM EDTA and 0.1% BSA, and left to stand overnight.
(§3) The fluorescence was detected the next morning in a Fusion™ alpha instrument (Perkin Elmer).
(§4) The calculation of % inhibition values per substance concentration was done by means of the following formula from the raw data determined in the Fusion™ alpha:
(§5) The controls were each determined 8 times, the substance samples each twice. 0% control contained neither any ATP nor any substrate; the 100% control contained no test substance. The IC50 values were determined with GraphPadPrism.

A further series concerns the target T2, Erk2.
T2 construct: in some cases as full-length kinases, in some cases as truncated fragments; purchased Upstate 14-173
The series can be described thus: Cell-free kinase assay (ALPHA technology), Erk2-ALPHA. Type of series: biochemical. Conditions: 10 μM ATP, recombinant human kinase. Here is the method:
as §1, §2, §3, §4, §5

The next series deals with Jnk1 + Jnk2. The series can be described thus: Cell-free kinase assay (ALPHA technology), Jnk1 + Jnk2. Type of series: biochemical. Conditions: at 10 μM or 100 μM* ATP, recombinant human kinases. As to the method:
as §1, with “(PerkinElmer). […]” for “(PerkinElmer).”
as §3, §4, §5

A further series has as its target T3, p38alpha (Homo sapiens, UniProt Q16539).
T3 construct: in some cases as full-length kinases, in some cases as truncated fragments
The series can be described thus: Cell-free kinase assay (ALPHA technology), p38alpha. Type of series: biochemical. Particulars: at 10 μM or 100 μM* ATP, recombinant human kinase. Here is the method:
as §1, with “(PerkinElmer). […]” for “(PerkinElmer).”
as §3, §4, §5

T2 sequence (P63085 whole entry, the tested form may be a part): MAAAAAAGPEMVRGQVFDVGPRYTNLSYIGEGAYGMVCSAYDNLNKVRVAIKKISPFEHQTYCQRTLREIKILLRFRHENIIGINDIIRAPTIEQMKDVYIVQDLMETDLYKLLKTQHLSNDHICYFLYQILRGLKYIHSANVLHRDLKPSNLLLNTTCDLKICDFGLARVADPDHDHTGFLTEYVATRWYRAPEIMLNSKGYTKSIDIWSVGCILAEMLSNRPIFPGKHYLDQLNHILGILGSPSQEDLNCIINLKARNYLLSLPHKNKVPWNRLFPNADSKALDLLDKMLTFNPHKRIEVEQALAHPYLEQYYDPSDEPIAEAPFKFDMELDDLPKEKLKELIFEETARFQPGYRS
T1 sequence (P42336 whole entry, the tested form may be a part): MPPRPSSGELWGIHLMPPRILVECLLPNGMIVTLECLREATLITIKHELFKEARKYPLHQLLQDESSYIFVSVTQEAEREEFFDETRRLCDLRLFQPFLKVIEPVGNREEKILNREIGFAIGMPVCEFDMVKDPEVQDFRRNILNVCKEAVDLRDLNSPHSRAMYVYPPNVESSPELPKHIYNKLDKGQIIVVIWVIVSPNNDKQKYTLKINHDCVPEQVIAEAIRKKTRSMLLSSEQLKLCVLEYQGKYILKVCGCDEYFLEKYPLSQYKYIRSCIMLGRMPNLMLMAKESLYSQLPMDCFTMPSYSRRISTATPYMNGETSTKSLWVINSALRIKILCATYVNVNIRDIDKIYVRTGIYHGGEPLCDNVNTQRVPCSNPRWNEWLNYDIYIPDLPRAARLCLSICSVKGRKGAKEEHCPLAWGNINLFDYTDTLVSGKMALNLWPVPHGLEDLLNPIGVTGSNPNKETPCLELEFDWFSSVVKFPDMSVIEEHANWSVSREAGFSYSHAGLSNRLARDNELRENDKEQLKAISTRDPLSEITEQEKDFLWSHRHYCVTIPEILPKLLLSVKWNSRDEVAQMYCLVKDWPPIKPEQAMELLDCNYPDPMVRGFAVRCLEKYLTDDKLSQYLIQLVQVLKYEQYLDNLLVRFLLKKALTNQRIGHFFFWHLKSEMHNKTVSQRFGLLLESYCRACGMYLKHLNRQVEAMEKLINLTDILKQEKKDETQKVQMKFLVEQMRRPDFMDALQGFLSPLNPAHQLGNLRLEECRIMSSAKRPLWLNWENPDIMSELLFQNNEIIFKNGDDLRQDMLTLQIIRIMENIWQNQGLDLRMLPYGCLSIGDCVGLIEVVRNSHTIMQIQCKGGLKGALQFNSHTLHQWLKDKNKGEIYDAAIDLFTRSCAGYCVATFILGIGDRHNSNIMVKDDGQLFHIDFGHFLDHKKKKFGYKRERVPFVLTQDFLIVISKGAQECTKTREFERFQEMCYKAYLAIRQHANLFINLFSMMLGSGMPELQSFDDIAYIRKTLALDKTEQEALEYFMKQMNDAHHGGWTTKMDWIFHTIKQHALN
T1 sequence (P27986 whole entry partner, the tested form may be a part): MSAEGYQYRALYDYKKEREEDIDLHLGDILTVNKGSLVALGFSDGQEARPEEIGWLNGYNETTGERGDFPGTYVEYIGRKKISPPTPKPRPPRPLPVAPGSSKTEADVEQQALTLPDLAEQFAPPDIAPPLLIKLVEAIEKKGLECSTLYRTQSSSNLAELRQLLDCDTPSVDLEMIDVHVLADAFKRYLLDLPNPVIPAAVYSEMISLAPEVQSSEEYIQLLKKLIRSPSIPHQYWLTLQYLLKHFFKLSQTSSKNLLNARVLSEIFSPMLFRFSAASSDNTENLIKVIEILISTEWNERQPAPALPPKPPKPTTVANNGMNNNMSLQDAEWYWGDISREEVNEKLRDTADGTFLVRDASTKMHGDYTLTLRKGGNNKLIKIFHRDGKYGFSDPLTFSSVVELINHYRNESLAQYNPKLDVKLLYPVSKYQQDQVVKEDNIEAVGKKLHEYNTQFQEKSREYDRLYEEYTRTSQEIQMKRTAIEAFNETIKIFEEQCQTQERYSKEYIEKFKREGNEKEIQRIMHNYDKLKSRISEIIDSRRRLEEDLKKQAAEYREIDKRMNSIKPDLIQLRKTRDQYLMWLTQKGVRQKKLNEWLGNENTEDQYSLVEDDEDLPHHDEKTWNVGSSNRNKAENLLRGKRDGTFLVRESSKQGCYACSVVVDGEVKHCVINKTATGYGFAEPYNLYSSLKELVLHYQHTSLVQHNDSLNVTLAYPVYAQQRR
T3 sequence (Q16539 whole entry, the tested form may be a part): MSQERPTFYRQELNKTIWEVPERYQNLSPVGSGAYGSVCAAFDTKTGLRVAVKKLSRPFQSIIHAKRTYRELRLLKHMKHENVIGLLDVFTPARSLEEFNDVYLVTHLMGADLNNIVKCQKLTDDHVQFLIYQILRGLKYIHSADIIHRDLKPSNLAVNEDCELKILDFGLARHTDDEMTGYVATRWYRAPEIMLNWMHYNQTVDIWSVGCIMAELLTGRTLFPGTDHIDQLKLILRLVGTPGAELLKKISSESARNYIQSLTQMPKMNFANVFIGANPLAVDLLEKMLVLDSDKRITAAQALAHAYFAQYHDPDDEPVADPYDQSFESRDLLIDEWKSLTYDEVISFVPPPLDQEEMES

By IC50 is commonly meant the midpoint of a concentration-inhibition curve. Regarding `CCOP(=O)(CCCCNC(=O)Nc1ccc2ncc(-c3ccc(O)c(OC)c3)nc2n1)OCC` [Compound 44, Diethyl (4-{3-[3-(4-hydroxy-3-methoxyphenyl)pyrido[2,3-b]pyrazin-6-yl]urea}butyl)phosphonate], the figures for the IC50 at PI3Kalpha, at Erk2 and in the series on Jnk1 + Jnk2 were 10.7 µM, 2800 nM and 8.4 µM, respectively.
For the compound `C=CCONC(=O)Nc1ccc2ncc(-c3ccccc3)nc2n1` [Compound 8, 1-Allyloxy-3-(3-phenylpyrido[2,3-b]pyrazin-6-yl)urea], the values for the IC50 on p38alpha and with Jnk1 + Jnk2 were > 100 µM and 19.4 µM, respectively.
Usually melting point stands for the temperature, or range, at which the solid turns liquid. In turn, `COCCOC(=O)Oc1ccc(-c2cnc3ccc(NC(=O)NCCCCO)nc3n2)cc1` (as salt: hydrochloride) [Compound 58, 4-{6-[3-(4-Hydroxybutyl)urea]pyrido[2,3-b]pyrazin-3-yl}phenyl 2-methoxyethyl carbonate hydrochloride] had a melting point of 165 to 168 °C.
`CCNC(=O)Nc1ccc2ncc(-c3ccc(NC(=O)OC(C)(C)C)cc3)nc2n1` [Compound 21, tert-Butyl {4-[6-(3-ethylurea)pyrido[2,3-b]pyrazin-3-yl]phenyl}carbamate] showed a melting point of 281 to 283 °C. In addition, on PI3Kalpha, the IC50 turned out to be 1.2 µM. Further, the IC50 on Erk2 was > 100000 nM. Besides, in the series on Jnk1 + Jnk2, the IC50 is > 31.6 µM.
In the case of `CCNC(=O)Nc1ccc2ncc(-c3ccc(OC(=O)N(CC)CC)cc3)nc2n1` [Compound 12, 4-[6-(3-Ethylurea)pyrido[2,3-b]pyrazin-3-yl]phenyl diethylcarbamate], the results for the half-maximal inhibitory concentration (IC50) on p38alpha and with Jnk1 + Jnk2 were 8.8 µM and 0.637 µM, respectively.
Compound `CCNC(=O)Nc1ccc2ncc(-c3cccc([Si](C)(C)C)c3)nc2n1` displayed a melting point of 224 to 228 °C.
For the compound `CCNC(=O)Nc1ccc2ncc(-c3ccc(OC(=O)Oc4ccccc4)cc3)nc2n1` [Compound 11, 4-[6-(3-Ethylurea)pyrido[2,3-b]pyrazin-3-yl]phenyl phenyl carbonate], the IC50 with Jnk1 + Jnk2 was > 100 µM.
Take `CCNC(=O)Nc1ccc2ncc(Nc3ccc(-c4ccsc4)cc3)nc2n1` [Compound 52, 1-Ethyl-3-[3-(4-thiophen-3-ylphenylamino)pyrido[2,3-b]pyrazin-6-yl]urea]: the melting point fell in the range of 264 to 267 °C.
`CCNC(=O)Nc1ccc2ncc(Nc3ccc(NC(C)=O)cc3)nc2n1` [Compound 53, N-{4-[6-(3-Ethylurea)pyrido[2,3-b]pyrazin-3-ylamino]phenyl}acetamide]: the values for the half-maximal inhibitory concentration (IC50) on PI3Kalpha, at Erk2 and in the series with Jnk1 + Jnk2 were 0.677 µM, 16500 nM and 20.4 µM, respectively.
For the compound `CCNC(=O)Nc1ccc2ncc(/C=C/C3CCCCC3)nc2n1` [Compound 5, 1-[3-((E)-2-Cyclohexylvinyl)pyrido[2,3-b]pyrazin-6-yl]-3-ethylurea], the melting point is 202 to 204 °C (dec.).
Take `CONC(=O)Nc1ccc2ncc(-c3ccccc3)nc2n1` [Compound 7, 1-Methoxy-3-(3-phenylpyrido[2,3-b]pyrazin-6-yl)urea]: the IC50 is > 100 µM at p38alpha and 11.4 µM in the series on Jnk1 + Jnk2.
Turning to `CCNC(=O)Nc1ccc2ncc(-c3ccc(OC(=O)N(C)C)cc3)nc2n1` [Compound 19, 4-[6-(3-Ethylurea)pyrido[2,3-b]pyrazin-3-yl]phenyl dimethylcarbamate], the melting point was > 230 °C (dec.). Also, the IC50 on PI3Kalpha turned out to be 2.3 µM. On Erk2, the half-inhibitory concentration (IC50) came out at 3900 nM. Further, in the series on Jnk1 + Jnk2, the IC50 is 10.1 µM.
`CCNC(=O)Nc1ccc2ncc(/C=C/c3ccc(F)cc3)nc2n1` [Compound 27, 1-Ethyl-3-{3-[(E)-2-(4-fluorophenyl)vinyl]pyrido[2,3-b]pyrazin-6-yl}urea] had a melting point of 217 to 219 °C.
As to `CCNC(=O)Nc1ccc2ncc(Nc3ccc(C4CCCCC4)cc3)nc2n1` [Compound 47, 1-[3-(4-Cyclohexylphenylamino)pyrido[2,3-b]pyrazin-6-yl]-3-ethylurea], the melting point was in the range of 246 to 248 °C.
With `CCNC(=O)Nc1ccc2ncc(C#Cc3ccsc3)nc2n1` [Compound 2, 1-Ethyl-3-(3-thiophen-3-ylethynylpyrido[2,3-b]pyrazin-6-yl)urea], the melting point is 239 to 242 °C (dec.).
Turning to `CCNC(=O)Nc1ccc2ncc(C#Cc3ccccc3)nc2n1` [Compound 1, 1-Ethyl-3-(3-phenylethynylpyrido[2,3-b]pyrazin-6-yl)urea], the melting point was 236 to 238 °C (dec.).
`CCNC(=O)Nc1ccc2ncc(-c3ccc(OC(=O)OCCOC)cc3)nc2n1` [Compound 55, 4-[6-(3-Ethylurea)pyrido[2,3-b]pyrazin-3-yl]phenyl 2-methoxyethyl carbonate hydrochloride]: the IC50 at PI3Kalpha (hydrochloride) is 3.6 µM; at Erk2, 812 nM; with Jnk1 + Jnk2 (hydrochloride), 2.9 µM.
As for `CCNC(=O)Nc1ccc2ncc(/C=C/COC)nc2n1` [Compound 6, 1-Ethyl-3-[3-((E)-3-methoxypropenyl)pyrido[2,3-b]pyrazin-6-yl]urea], the IC50 on PI3Kalpha was 21.3 µM; on Erk2, 2400 nM.
With `COCCOC(=O)Oc1ccc(-c2cnc3ccc(NC(=O)NCCCCO)nc3n2)cc1` [Compound 58, 4-{6-[3-(4-Hydroxybutyl)urea]pyrido[2,3-b]pyrazin-3-yl}phenyl 2-methoxyethyl carbonate hydrochloride], the half-inhibitory concentration (IC50) turned out to be 4.3 µM at PI3Kalpha, 763 nM at Erk2 and 2.5 µM in the series with Jnk1 + Jnk2.
In the case of `CCNC(=O)Nc1ccc2ncc(C#CC3CC3)nc2n1` [Compound 3, 1-(3-Cyclopropylethynylpyrido[2,3-b]pyrazin-6-yl)-3-ethylurea], the melting point was 227 to 228 °C (dec.).
For the compound `CCNC(=O)Nc1ccc2ncc(-c3ccc(NC(=O)OCCOC)cc3)nc2n1` [Compound 22, 2-Methoxyethyl {4-[6-(3-ethylurea)pyrido[2,3-b]pyrazin-3-yl]phenyl}carbamate], the melting point was in the range of 249 to 251 °C. Further, the IC50 at PI3Kalpha stood at 1.2 µM. In addition, at Erk2, the IC50 is > 100000 nM. The IC50 in the series on Jnk1 + Jnk2 was > 31.6 µM.
For `CCNC(=O)Nc1ccc2ncc(-c3ccc(NC(=O)COCCOC)cc3)nc2n1` [Compound 30, N-{4-[6-(3-Ethylurea)pyrido[2,3-b]pyrazin-3-yl]phenyl}-2-(2-methoxyethoxy)acetamide], in that order: 212 to 215 °C, 0.749 µM, > 31600 nM and 13.8 µM.
Consider `CCNC(=O)Nc1ccc(-c2cnc3ccc(NC(=O)NCC)nc3n2)cn1` [Compound 25, 1-Ethyl-3-{3-[6-(3-ethylurea)pyridin-3-yl]pyrido[2,3-b]pyrazin-6-yl}urea], for which the IC50 on PI3Kalpha stood at 4.4 µM; on Erk2 it was 3400 nM; in the series with Jnk1 + Jnk2, 24.2 µM.
`COc1cc(-c2cnc3ccc(NC(=O)NCCCCP(=O)(O)O)nc3n2)ccc1O` [Compound 45, (4-{3-[3-(4-Hydroxy-3-methoxyphenyl)pyrido[2,3-b]pyrazin-6-yl]urea}butyl)phosphonic acid]: the IC50 at PI3Kalpha is 12.5 µM; on Erk2, 243 nM; in the series with Jnk1 + Jnk2 it was 0.974 µM.
Compound `CCNC(=O)Nc1ccc2ncc(CCc3ccc(F)cc3)nc2n1` [Compound 26, 1-Ethyl-3-{3-[2-(4-fluorophenyl)ethyl]pyrido[2,3-b]pyrazin-6-yl}urea] had a melting point of 207 to 209 °C.
Compound `CCNC(=O)Nc1ccc2ncc(-c3ccc(OC(=O)/C=C/c4ccccc4)cc3)nc2n1` [Compound 13, 4-[6-(3-Ethylurea)pyrido[2,3-b]pyrazin-3-yl]phenyl (E)-3-phenylacrylate] had a melting point of 236 to 238 °C. The IC50 on Erk2 is 640 nM. Further, the IC50 with Jnk1 + Jnk2 is > 100 µM.
